Data from US12084442B2, “Naphthyridinone derivatives for the treatment of a disease or disorder” (Novartis AG, priority 2021, dated 2024).
pIC50: −log10 of the molar value.

Experiments:
GIRK1/4 = GIRK1/4 (Homo sapiens (Human), UniProt P48544+P48549); assay: GIRK1/4 activity assay (Quattro/IonWorks population patch clamp, inward potassium current); assay type: cell-based; conditions: GIRK1/4 HEK293 stable cells; current inhibition normalized to DMSO-only control
Protocol: The GIRK1/4 activity of a compound according to the present invention was assessed by the following in vitro method.
• a. External buffer: 10 mM NaCl, 50 mM Na Gluconate, 80 mM K Gluconate, 1.8 mM CaCl2, 1 mM MgCl2, 10 mM HEPES, 10 mM Glucose, pH 7.4; osmolarity 300-310 Osm/L. • b. Internal buffer: 30 mM KCl, 100 mM K Gluconate, 1 mM MgCl2, 10 mM HEPES, 1 mM EGTA, 10 mM NaCl, pH 7.2; osmolarity 284-292 Osm/L. Compounds: • c. Prepare seven-fold compound dilution series (10 mM to 20 uM) in 100% DMSO, in 384-well polypropylene plates. • d. Propafenone (Sigma Aldrich, catalog number P4670) was used as a positive control and DMSO for neutral control • e. Resuspend 1 μl of compounds in DMSO into 66.7 μl external buffer in 384-well polypropylene plate and load into Plate 1 section of Molecular Devices Quattro® Quattro Setup: • f. Load 384-well Population Patch Plate (Molecular Devices #9000-0902) into Quattro • g. Fill Quattro F-soak trough with 20% DMSO and 50% EtOH • h. Fill Quattro buffer trough with external buffer • i. Attach internal buffer flask to Quattro internal buffer tubing • j. Attach PBS (Phosphate Buffered Saline, minus Ca^++ and Mg^++, pH7.4) bottle to F-head & E-head wash on Quattro Antibiotic: • k. Resuspend 5.1-5.8 mg amphotericin B (Sigma Aldrich, catalog number A2411) in 175 μl DMSO • l. Add the resulting solution to 50 mL internal buffer and attach to antibiotic tubing port on Quattro Cells: • m. Use GIRK1/4 HEK293 stable cells (obtained from ChanTest, 14656 Neo Parkway, Cleveland, Ohio 44128) grown to ˜80% confluency in the following cell culture medium: DMEM containing 10% (v/v) Fetal Bovine Serum, Penicillin/Streptomycin (at “IX” concentration from a 100× stock), 0.5 mg/mL G418 and 0.1 mg/mL Zeocin. • n. Detach cells using Detachin (Genlantis, 11011 Torreyana, San Diego, CA 92121), washed with PBS (minus Ca^++ and Mg^++) and resuspend in external buffer (5 mL final volume at 2.0-2.1×10^6 cells/mL) • o. Load into cell trough of Quattro Assay Protocol:
Quattro was controlled using IonWorks v2 software to perform the following steps: • p. Added 3.5 μl cells plus 3.5 μl external buffer to wells of Quattro Patch Plate® • q. Circulated amphotericin B and internal buffer onto cells • r. Applied the following voltage protocol: Pulse 1: 15 mV for 300 milliseconds (ms), followed by Pulse 2: −120 mV for 400 ms, then Pulse 3: −15 mV for 400 ms, and finally Pulse 4: −120 mV to 40 mV over 500 ms (this is a voltage ramp). • s. Measured magnitude of inward potassium current at time point between 1200-1220 ms from start of Pulse 1 (i.e., during the voltage ramp phase). • t. Added 3.5 μl of diluted compounds (or DMSO) to wells and repeated […] (final compound concentrations are 50 uM to 0.1 uM, and each concentration was tested in quadruplicate—i.e., in 4 separate wells). • u. The difference between current magnitude pre vs. post-compound gave a measure of GIRK1/4 inhibition. Data Analysis:
IC50 values were calculated by plotting the percentage of current inhibition (normalized to the DMSO-only control) as a function of compound concentration using standard data analysis software.

[1] = Pharmacokinetic properties in rats (IV and PO, whole blood LC-MS/MS); assay type: in vivo, Spargue Dawley/CD, male; conditions: for Rat AUC0-24 h 3 mg/kg: 3 mg/kg PO, suspension; for Rat AUC0-24 h 3 mg/kg / clearance: whole blood; for clearance: male, Sprague Dawley/CD, rat, IV dosing (0.3-1 mg/kg), CL = Dose/AUCinf; for Rat F: oral bioavailability, PO 3 mg/kg vs IV
Protocol: The pharmacokinetic properties of the compounds in rats were assessed by the following in vivo studies as described below.
At least four days before first drug administration, the rats (250-350 g) were anesthetized and, under aseptic conditions, catheters were surgically implanted into the left and right jugular veins (one for blood collection and the other one for intravenous injection). The catheters were exteriorized and fixed at the neck. For analgesic treatment, animals received analgesics before surgery and subsequently twice at appropriate times after surgery. The freely-moving animals equipped with catheters are kept individually in Macrolon cages, with free access to food and water throughout the experiment. After a recovery phase of at least 4 days, a single test compound was administered intravenously or orally, based upon the individual body weights.
The test articles were administered as solution in NMP:PEG 200 (10:90 v/v). Test articles where no solution can be obtained were rejected and not used in discrete or cassette dosing.
The test article were administered as suspension in MC:Tween 80:water (0.5:0.1:99.4 w/v/v).
The test article was administered as solution and as a bolus injection or as short I.V. infusion (30 seconds) via the left jugular vein catheter to conscious rats. The dose volume was 0.5 mL/kg body weight.
The test article was administered as a solution or suspension into the esophagus via a gavage tube to conscious rats. The dose volume was 5 mL/kg body weight. The exact start time of dosing and exact dose volume was noted.
Blood samples (20 μL) were collected from the right jugular vein catheter of cannulated animals (if JV catheter becomes non patent during the PK experiment (i.e., after dosing), blood can exceptionally be collected by tail vein puncture but it must be clearly specified into the in-life observations and data study rep) in tubes containing 10% of blood of 2% W/V K2 EDTA (2.0 mg/mL) at the different time intervals. Blood was collected following IV dosing at 0.083, 0.25, 0.5, 1, 2, 4, 7 and 24 h post dose. Blood was collected following PO dosing: 0.25, 0.5, 1, 2, 4, 7 and 24 h post dose.
The concentrations of compounds in whole blood were quantified using a liquid chromatography/mass spectrometry (LC-MS/MS) assay. 20 μL of each blood sample were precipitated with 100 μL of acetonitrile containing generic internal standards (carbamazepine/telmisartan/verapamil; c=50 ng/mL). The samples were vortexed thoroughly then centrifuged (5 min, 4° C.). The supernatant (80 μL) was transferred to a clean 96-well plate and mixed with 80 μL of water.
The samples were injected (1 to 20 μL) onto suitable analytical columns, using various isocratic methods and flow rates. Mobile phases typically consisting of 0.1% formic acid in water (solvent A) and 0.1% formic acid in acetonitrile (solvent B) with additional modifiers, if needed. Compounds and the internal standards were eluted at various retention times. The HPLC systems were interfaced to mass spectrometers. MS/MS analyses were carried out using electrospray ionization (ESI), typically in the positive ionization mode. Compounds and the internal standards were monitored using multiple reaction monitoring (MRM).
The standard curves employed for sample quantitation ranged over several log units. The lower limit of quantitation (LLOQ) in blood was determined and used as cutoff for the analytical sensitivity. Known amounts of the compounds were spiked into blood to create quality control samples with six known concentrations in singlets. The accuracy of the in vivo blood sample concentration determination was considered acceptable when the intra-assay accuracies obtained for the quality control samples were within 70% to 130% of the expected concentrations. Subsequently, from the time concentration data, pharmacokinetic parameters were calculated by non-compartmental regression analyses using an in house fitting program. […]

Sequence of GIRK1/4 (P48549 whole entry): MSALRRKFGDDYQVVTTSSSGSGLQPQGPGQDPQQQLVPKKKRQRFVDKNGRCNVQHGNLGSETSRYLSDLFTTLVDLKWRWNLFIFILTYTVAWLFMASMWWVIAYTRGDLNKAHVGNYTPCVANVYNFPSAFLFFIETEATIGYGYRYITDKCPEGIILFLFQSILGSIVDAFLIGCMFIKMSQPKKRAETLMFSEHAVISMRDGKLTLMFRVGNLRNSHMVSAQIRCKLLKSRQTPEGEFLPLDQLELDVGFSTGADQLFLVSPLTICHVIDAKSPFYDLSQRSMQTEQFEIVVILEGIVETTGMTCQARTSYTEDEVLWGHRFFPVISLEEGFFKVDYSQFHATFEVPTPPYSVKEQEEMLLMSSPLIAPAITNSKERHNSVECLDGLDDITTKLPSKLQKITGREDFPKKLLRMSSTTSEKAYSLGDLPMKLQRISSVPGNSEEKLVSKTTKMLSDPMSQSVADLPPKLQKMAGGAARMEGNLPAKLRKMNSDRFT
Sequence of GIRK1/4 (P48544 whole entry): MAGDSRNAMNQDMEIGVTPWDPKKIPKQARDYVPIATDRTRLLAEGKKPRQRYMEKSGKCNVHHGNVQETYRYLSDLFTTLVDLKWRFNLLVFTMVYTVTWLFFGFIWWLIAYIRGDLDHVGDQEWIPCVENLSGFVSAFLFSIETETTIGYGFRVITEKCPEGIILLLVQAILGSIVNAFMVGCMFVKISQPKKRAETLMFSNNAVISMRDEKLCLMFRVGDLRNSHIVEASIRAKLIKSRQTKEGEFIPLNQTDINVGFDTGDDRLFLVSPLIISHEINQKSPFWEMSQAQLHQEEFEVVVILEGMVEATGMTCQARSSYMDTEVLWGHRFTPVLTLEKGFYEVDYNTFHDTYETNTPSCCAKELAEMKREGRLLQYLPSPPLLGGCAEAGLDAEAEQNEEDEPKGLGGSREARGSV

Row | Structure (SMILES) | pIC50 (GIRK1/4) | Rat AUC0-24 h 3 mg/kg [1] [nMh] | clearance [1] [mL/min/kg] | Rat F [1] [%]
1 | Cc1cc(=O)c2c(OCC(=O)NCCO)ncc(Cl)c2n1-c1c(Cl)cc(OCCO)cc1Cl [Example 2, 2-((8-Chloro-1-(2,6-dichloro-4-(2-hydroxyethoxy)phenyl)-2-methyl-4-oxo-1,4-dihydro-1,6-naphthyridin-5-yl)oxy)-N-(2-hydroxyethyl)acetamide] | 6.66 | 1288 | 23 | 29
2 | CNC(=O)CCOc1ncc(Cl)c2c1c(=O)cc(C)n2-c1c(Cl)cc(OCC(C)(C)O)cc1Cl [Example 3, 3-((8-Chloro-1-(2,6-dichloro-4-(2-hydroxy-2-methylpropoxy)phenyl)-2-methyl-4-oxo-1,4-dihydro-1,6-naphthyridin-5-yl)oxy)-N-methylpropanamide] | 6.66 | 7738 | 5.7 | 47
3 | CNC(=O)COc1ncc(Cl)c2c1c(=O)cc(C)n2-c1c(Cl)cc(OCC(C)(C)O)cc1Cl [Example 4, 2-((8-Chloro-1-(2,6-dichloro-4-(2-hydroxy-2-methylpropoxy)phenyl)-2-methyl-4-oxo-1,4-dihydro-1,6-naphthyridin-5-yl)oxy)-N-methylacetamide] | 6.80 | 3674 | 5.5 | 22
4 | CNC(=O)COc1ncc(Cl)c2c1c(=O)cc(C)n2-c1c(Cl)cc(OCCO)cc1Cl [Example 5, 2-((8-Chloro-1-(2,6-dichloro-4-(2-hydroxyethoxy)phenyl)-2-methyl-4-oxo-1,4-dihydro-1,6-naphthyridin-5-yl)oxy)-N-methylacetamide] | 7.22 | 2336 | 14.6 | 33
5 | CNC(=O)CCOc1ncc(Cl)c2c1c(=O)cc(C)n2-c1c(Cl)cc(OC[C@@H](C)O)cc1Cl [Example 6, (R)-3-((8-Chloro-1-(2,6-dichloro-4-(2-hydroxypropoxy)phenyl)-2-methyl-4-oxo-1,4-dihydro-1,6-naphthyridin-5-yl)oxy)-N-methylpropanamide] | 6.89 | 3570 | 21.6 | 82
6 | CNC(=O)[C@@H](C)COc1ncc(Cl)c2c1c(=O)cc(C)n2-c1c(Cl)cc(OCCO)cc1Cl [Example 8, (S)-3-((8-Chloro-1-(2,6-dichloro-4-(2-hydroxyethoxy)phenyl)-2-methyl-4-oxo-1,4-dihydro-1,6-naphthyridin-5-yl)oxy)-N,2-dimethylpropanamide] | 7.15 |  |  | 

Continued, values first:

Row | pIC50 (GIRK1/4) | Rat AUC0-24 h 3 mg/kg [1] [nMh] | clearance [1] [mL/min/kg] | Rat F [1] [%] | Structure (SMILES)
7 | 6.77 | 3200 | 10.4 | 34 | Cc1cc(=O)c2c(CC(C)S(C)(=O)=O)ncc(Cl)c2n1-c1c(Cl)cc(OCCO)cc1Cl (single isomer, unassigned) [Example 21, 8-Chloro-1-(2,6-dichloro-4-(2-hydroxyethoxy)phenyl)-2-methyl-5-(2-(methylsulfonyl)propyl)-1,6-naphthyridin-4(1H)-one]
8 | 6.48 |  |  |  | CNC(=O)CCOc1ncc(Cl)c2c1c(=O)cc(C)n2-c1c(Cl)cc(OC[C@H](C)O)cc1Cl [Example 10, (S)-3-((8-Chloro-1-(2,6-dichloro-4-(2-hydroxypropoxy)phenyl)-2-methyl-4-oxo-1,4-dihydro-1,6-naphthyridin-5-yl)oxy)-N-methylpropanamide]
9 | 6.80 |  |  |  | CNC(=O)C(C)(C)COc1ncc(Cl)c2c1c(=O)cc(C)n2-c1c(Cl)cc(OCCO)cc1Cl [Example 11, 3-((8-Chloro-1-(2,6-dichloro-4-(2-hydroxyethoxy)phenyl)-2-methyl-4-oxo-1,4-dihydro-1,6-naphthyridin-5-yl)oxy)-N,2,2-trimethylpropanamide]
10 | 6.70 |  |  |  | CNC(=O)[C@H](O)COc1ncc(Cl)c2c1c(=O)cc(C)n2-c1c(Cl)cc(OCCO)cc1Cl [Example 12, (R)-3-((8-Chloro-1-(2,6-dichloro-4-(2-hydroxyethoxy)phenyl)-2-methyl-4-oxo-1,4-dihydro-1,6-naphthyridin-5-yl)oxy)-2-hydroxy-N-methylpropanamide]
11 | 6.77 |  |  |  | CNC(=O)[C@@H](O)COc1ncc(Cl)c2c1c(=O)cc(C)n2-c1c(Cl)cc(OCC(C)(C)O)cc1Cl [Example 14, (S)-3-((8-chloro-1-(2,6-dichloro-4-(2-hydroxy-2-methylpropoxy)phenyl)-2-methyl-4-oxo-1,4-dihydro-1,6-naphthyridin-5-yl)oxy)-2-hydroxy-N-methylpropanamide]
12 | 7.52 |  |  |  | CNC(=O)C(F)(F)COc1ncc(Cl)c2c1c(=O)cc(C)n2-c1c(Cl)cc(OCCO)cc1Cl [Example 16, 3-((8-Chloro-1-(2,6-dichloro-4-(2-hydroxyethoxy)phenyl)-2-methyl-4-oxo-1,4-dihydro-1,6-naphthyridin-5-yl)oxy)-2,2-difluoro-N-methylpropanamide]
13 |  | 1702 | 38.9 | 65 | Cc1cc(=O)c2c(OCCC(N)=O)ncc(Cl)c2n1-c1c(Cl)cc(OCCO)cc1Cl [Example 18]
